Measured values taken from patent publication US5602277A, “Substituted benzene derivatives useful as neuraminidase inhibitors” (priority 1995, dated 1997).
Structures can show the parent of a compound that is named as a salt. Where two headings read alike, the source gives them in different places.

Experiments:
[1] = cited from earlier work
HA = conditions: cited from earlier work
[2] = test system: influenza virus neuraminidase; format: biochemical; conditions: substrate 75 μM, pH 6.5, 5 min at 37° C.

| Molecule | IC50 [2] [µM] | % Inhibition at 7 nM [2] [%] | other results |
| --- | --- | --- | --- |
| CC(=O)N[C@H]1[C@H]([C@H](O)[C@H](O)CO)OC(C(=O)O)=C[C@@H]1O [DANA, 2-deoxy-2,3-didehydro-N-acetylneuraminic acid] |  |  | activity in vivo [1]: inactive; inhibition of HA in vitro (HA): inhibit |
| CC(=O)Nc1ccc(C(=O)O)cc1C=NO [Example 42, 4-Acetylamino-3-[(hydroxylimino)methyl]benzoic acid hydrate (4:1)] | 5500 |  |  |
| CS(=O)(=O)Nc1ccc(C(=O)O)cc1 [Example 16, 4-[(Methylsulfonyl)amino]benzoic acid] |  | 34 |  |
| N=C(N)Nc1cccc(C(=O)O)c1 [Example 17, 3-Guanidinobenzoic acid hydrochloride (2:1)] | 5000 |  |  |
| 3-[(Aminoiminomethyl)amino]-4-[(methylamino)carbonyl]benzoic acid hydrochloride, complex with water and methanol (4:4:4:1 and 5:5:5:1) [Example 53] | 5 |  |  |
| CC(=O)Nc1ccc(CC(=O)O)cc1 [Example 26, 4-(Acetamido)phenylacetic acid] |  | 15 |  |
| N#CNc1cccc(C(=O)O)c1 [Example 21, 3-Cyanoaminobenzoic acid hydrate (5:1)] | 4000 |  |  |
| CC(C)C(=O)Nc1ccc(C(=O)O)cc1NC(=N)N [Example 40, 3-[(Aminoiminomethyl)amino]-4-(2-methylpropionylamino)benzoic acid hydrate [2:1]] | 1000 |  |  |
| N#CN=C(N)Nc1cccc(C(=O)O)c1 [Example 18, 3-[Amino(cyanoimino)methyl]aminobenzoic acid hydrate (4:1)] |  | 68 |  |
| CC(=O)Nc1ccc(C(=O)O)cc1 [Example 4, 4-Acetylaminobenzoic acid] |  | 39 |  |
| O=C(O)c1ccc(NC(=O)C(F)(F)F)cc1 [Example 9, 4-(Trifluoroacetamido)benzoic acid] |  |  | % Inhibition ([2]; compound @ 3.3 mM): 56% |
| N=C(N)Nc1cc(C=NO)cc(C(=O)O)c1 [Example 51, 3-[(Aminoiminomethyl)amino]-5-[(N-hydroxylimino)methyl]benzoic acid hydrate (4:3)] | 800 |  |  |
| COc1ccc(C(=O)O)cc1NC(=N)N [Example 46, 3-[(Aminoiminomethyl)amino]-4-methoxybenzoic acid hydrochloride (1:1)] |  | 46 |  |
| N=C(N)Nc1ccccc1 [Example 1, Phenylguanidine carbonate hydrate (2:1:1)] |  | 44 |  |
| CC(=O)Nc1ccc(C(=O)O)cc1CO.[Na+].[OH-] [Example 31, 4-Acetylamino-3-hydroxymethylbenzoic acid, complex with NaOH [5:3]] |  | 31 |  |
| CC(=O)Nc1ccc(C(=O)O)cc1CCO [Example 33, β-(2-N-Acetylamino-5-carboxyphenyl)ethanol] |  | 42 |  |
| N=C(N)Nc1cc(NC(=N)N)cc(C(=O)O)c1 [Example 49, 3,5-Bis-[(aminoiminomethyl)amino]benzoic acid hydrochloride, solvate with ethanol (10:15:2)] | 1500 |  |  |
| CC(=O)Nc1ccc(C(=O)O)cc1N [Example 37, 4-Acetylamino-3-aminobenzoic acid hydrochloride (2:1)] | 14000 | 28 |  |
| N=C(N)Nc1cc(C(=O)O)ccc1O [Example 47, 3-[(Aminoiminomethyl)amino]-4-hydroxybenzoic acid hydrochloride (1:1)] |  | 33 |  |
| CC(=S)Nc1ccc(C(=O)O)cc1 [Example 10, 4-Thioacetamidobenzoic acid] | 1000 |  |  |
| CC(=O)Nc1ccc(C(=O)O)cc1CC(O)CO (single isomer, unassigned; isomer b) [Example 36, 4-Acetylamino-3-(2',3'-dihydroxypropyl)benzoic acid, solvate with water [4:3](Isomer B)] |  | 35 |  |
| CNC(=O)c1ccc(C(=O)O)cc1 [Example 27, 4-(Methylaminocarbonyl)benzoic acid] |  | 27 |  |
| N=C(N)Nc1cc(N)cc(C(=O)O)c1 [Example 50, Sodium 3-amino-5-[(aminoimino)methyl]aminobenzoate hydrate] | 2000 |  |  |
| CC(=O)Nc1ccc(S(=O)(=O)O)cc1 [Example 6, 4-Acetylaminobenzenesulfonic acid hydrate (4:1)] |  | 30 |  |
| N=C(N)Cc1cccc(C(=O)O)c1 [Example 23, 3-(2-Amino-2-imino)ethylbenzoic acid complex with water (5:1)] |  |  | % Inhibition ([2]; compound @ 3.5 mM): 22% |
| CC(=O)Nc1ccc(C(=O)O)cc1CC(O)CO (single isomer, unassigned; isomer a) [Example 35, 4-Acetylamino-3-(2',3'-dihydroxypropyl)benzoic acid, solvate with water [5:1] (Isomer A)] | 20000 | 25 |  |
| N=C(N)NC(=N)Nc1ccccc1 [Example 3, 1-Phenylbiguanide] | 5500 | 75 |  |
| CC(C)OC(C)C.CS(=O)(=O)Nc1c(CO)cc(C(=O)O)cc1NC(=N)N [Example 52, 3-(Aminoiminomethyl)amino-5-hydroxymethyl-4-(methylsulfonyl)aminobenzoic acid hydrate complex with diisopropyl ether (10:10:1)] | 2000 |  |  |
| CC(=O)Nc1ccc(P(=O)(O)O)cc1 [Example 7, 4-Acetylaminophenylphosphonic acid] |  | 32 |  |
| CS(=O)(=O)Nc1ccc(C(=O)O)cc1NC(=N)N [Example 43, 3-[(Aminoiminomethyl)amino]-4-[(methylsulfonyl)amino]benzoic acid, solvate with water (2:1)] | 100 |  |  |
